Key:
HEK293 cells = experiment: alamarBlue cytotoxicity assessment in HEK293 cells; type: cell-based, human; conditions: 16 h
Procedure: Figure S2: Concentration-dependent cytotoxicity assessment of RUN compounds.
HEK293 cells were treated for 16 hours with increasing concentrations of RUN compounds (1.25 µM; 2.5 µM; 5; 7.5 and 10 µM) or DMSO (negative control). Cell viability was determined using the alamarBlue assay following the protocol of Riss.(1) Data are presented as means ± SD from three independent experiments (n = 3). Statistical analysis was done using repeated measures one-way ANOVA with Geisser–Greenhouse correction, followed by Dunnett’s multiple comparisons test. *p<0.05. Detailed results of the analysis are shown in […]
(1 picture or pasted object on this page, not shown here)
(§1) 2 Biology Experimental Procedures
(§2) Safety statement: No unexpected or unusually high safety hazards were encountered. […]
Cell lines were sourced from the ATCC (USA) and/or ECACC (UK), namely HCT116 (human colorectal carcinoma), ATCC CCL-247 (RRID:CVCL_0291), HEK-293 (human embryonic kidney), ATCC CRL-1573 (RRID:CVCL_0045), SH-SY5Y (human neuroblastoma), ATCC CRL-2266 (RRID:CVCL_0019). The characteristics of DDI2 knockout cells derived from HCT116 cells have been described previously (Sedlacek et al., 2025). All cell lines were tested for mycoplasma contamination. Most of the cell lines were cultured in Dulbecco's Modified Eagle Medium (DMEM) enriched with 10% fetal bovine serum (FBS) and 2 mM L-glutamine, under standard conditions of 37 °C with 5% CO₂. DNA transfection was performed with Lipofectamine 2000, following the manufacturer's instructions. Transgenic cells were then selected with either G418 (400 µg/mL) or hygromycin B (450 µg/mL), based on the selection marker encoded by the plasmid used. […]

NFE2L1 pathway = experiment: 3×PSMA4-ARE-LUC dual luciferase reporter assay in HEK293 cells; type: cell-based, human; conditions: Homo sapiens; 5 μM, 16 h, HEK293, luminescence relative to DMSO-treated cells; read-out: NFE2L1 activation [5 μM]
From the text: In our previous work,[43] we developed a library of NFE2L1 stimulators using a cell-based luciferase reporter assay. This system was based on three tandem copies of the antioxidant response element (ARE) derived from the NFE2L1 target gene proteasome subunit alpha type-4 (3xPSMA4, PSMA4-ARE-LUC). It was designed to detect the proteasome “bounce-back” response induced by proteasome inhibitors such as MG132 or bortezomib.[22,43,45,46] The reporter assay was adapted to a 384-well format and used to evaluate a new set of RUN compounds designed around the structural framework of the RUN-47 activator. We focused on identifying compounds that increased the 3×PSMA4-ARE-LUC signal (Fig. 1A), while simultaneously assessing cytotoxicity (see the SI, Fig. S2). […] In contrast, thiourea- and urea-containing derivatives generally produced only weak to intermediate responses, rarely exceeding a fold change of 7.
Fig. 1 (A) Targeted library screening of RUN compounds using the 3×PSMA4-ARE-LUC dual reporter assay in HEK293 cells. Cells were exposed to RUN compounds (5 μM) for 16 hours, and luciferase activity was measured. Data are presented as the mean ± SD from three independent experiments (n = 3). Results are shown as a fold change in luminescence relative to DMSO-treated cells. Selected hit compounds are highlighted in distinct colours. (B) RUN-89 specifically activates the NFE2L1 pathway. The DDI2 knockout (KO) and parental (WT) HCT116 cells were transfected with the 3×PSMA4-ARE-LUC reporter and treated with 0.5 μM bortezomib (BTZ) and 5 μM RUN-89 for 16 hours. Data are presented as the Geomean ± GeoSD of three independent experiments (n = 3). Statistical analysis was performed on log2-transformed values using two-way repeated-measures ANOVA followed by Šídak's multiple comparison test. (C) RUN-89 selectively triggers downstream signaling events associated with NFE2L1 gene expression. HEK293 cells were transfected with lipid nanoparticles (LNPs) carrying siRNAs targeting NFE2L1 or NFE2L2. LNPs formulated with non-targeting siRNA served as a negative control. Following 24 hours of incubation, cells were treated with 7.5 μM RUN-89 or DMSO (vehicle) for an additional 16 hours. Expression of the proteasomal subunit gene PSMC4 was then quantified by RT-qPCR. Data are shown as the Geomean ± GeoSD from three independent biological replicates (n = 3). Log2-transformed data were analyzed using two-way repeated-measures ANOVA with the Geisser–Greenhouse correction, followed by Tukey's multiple comparison test with individual variances computed for each comparison. Additional results for NFE2L1, NFE2L2, PSMB7, and PSMD12 are presented in SI Fig. S10.
Figure S1: Concentration–response of luciferase cell-based assay (PSMA4-ARE-luc2P reporter) on treatment with RUN-81, RUN-89, and RUN-94. Concentration is plotted on the X-axis. Dose–response relationships were analyzed using a four-parameter logistic curve (4PL), or a bell-shaped dose-response curve, both with weighting 1/Y^2. Dotted lines represent 95% confidence bands. Calculated EC₅₀ values, curve parameters, and asymmetrical confidence intervals are summarized in the accompanying table . Data are presented as mean ± SD from four independent experiments (n=4).
as §1, §2
Most of the cell lines were cultured in Dulbecco's Modified Eagle Medium (DMEM) enriched with 10% fetal bovine serum (FBS) and 2 mM L-glutamine, under standard conditions of 37 °C with 5% CO₂. DNA transfection was performed with Lipofectamine 2000, following the manufacturer's instructions. Transgenic cells were then selected with either G418 (400 µg/mL) or hygromycin B (450 µg/mL), based on the selection marker encoded by the plasmid used. Cell viability was evaluated using the […]

[1] = HEK293, alamarBlue, concentration not given

Row | Compound | Tox [% of ctrl.] (HEK293 cells; [1]) | fold induction at 5 µM (NFE2L1 pathway) | Tox [% of ctrl.] (HEK293 cells; human)
1 | COc1ccc(/C=C2\CN(C(=S)Nc3cccnc3)C/C(=C\c3ccc(OC)c(OC)c3)C2=O)cc1OC [RUN-73] | 84% of ctrl. | 1.9 | 
2 | CCOC(=O)CNC(=O)N1C/C(=C\c2ccc(OC)c(OC)c2)C(=O)/C(=C/c2ccc(OC)c(OC)c2)C1 [RUN-74] | 81% of ctrl. | 7.1 | 
3 | CCOC(=O)CCNC(=O)N1C/C(=C\c2ccc(OC)c(OC)c2)C(=O)/C(=C/c2ccc(OC)c(OC)c2)C1 [RUN-75] | 82% of ctrl. | 6.8 | 
4 | COc1cccc(NC(=O)N2C/C(=C\c3ccc(OC)c(OC)c3)C(=O)/C(=C/c3ccc(OC)c(OC)c3)C2)c1 [RUN-76] | 88% of ctrl. | 6.8 | 
5 | COc1ccc(/C=C2\CN(C(=S)NCCN3CCOCC3)C/C(=C\c3ccc(OC)c(OC)c3)C2=O)cc1OC [RUN-77] | 84% of ctrl. | 2.5 | 
6 | COc1ccc(/C=C2/C(=O)/C(=C/c3ccc(OC)c(OC)c3)C3CCC2N3)cc1OC [RUN-78] |  | 1.4 | 89% of ctrl.
7 | COc1ccc(/C=C2/C(=O)/C(=C/c3ccc(OC)c(OC)c3)C3CCC2N3CCN2CCOCC2)cc1OC [RUN-79] |  | 0.9 | 104% of ctrl.
8 | COc1ccc(/C=C2/C(=O)/C(=C/c3ccc(OC)c(OC)c3)C3CCC2N3Cc2ccc(C#N)cc2)cc1OC [RUN-80] |  | 2 | 98% of ctrl.
9 | COCCOCCOCC(=O)N1C/C(=C\c2ccc(OC)c(OC)c2)C(=O)/C(=C/c2ccc(OC)c(OC)c2)C1 [RUN-82] | 85% of ctrl. | 3.2 | 
10 | COc1ccc(/C=C2\CN(C(=O)C34CCN(CC3)CC4)C/C(=C\c3ccc(OC)c(OC)c3)C2=O)cc1OC [RUN-83] |  | 1.5 | 87% of ctrl.
11 | COc1ccc(/C=C2\CN(C(=O)CN)C/C(=C\c3ccc(OC)c(OC)c3)C2=O)cc1OC [RUN-85] |  | 2.7 | 
12 | COc1ccc(/C=C2\CC(NC(=O)CN(C)C)C/C(=C\c3ccc(OC)c(OC)c3)C2=O)cc1OC.O=C(O)C(F)(F)F (stereo not drawn) [RUN-86] | 96% of ctrl. | 2 | 
13 | COc1ccc(/C=C2\CC(NC(=O)C34CCN(CC3)CC4)C/C(=C\c3ccc(OC)c(OC)c3)C2=O)cc1OC (stereo not drawn) [RUN-87] |  | 1 | 101% of ctrl.
14 | COCCOCCOCC(=O)NC1C/C(=C\c2ccc(OC)c(OC)c2)C(=O)/C(=C/c2ccc(OC)c(OC)c2)C1 (stereo not drawn) [RUN-88] | 86% of ctrl. | 3.9 | 
15 | COc1ccc(/C=C2\CC(NC(=O)CN3CCN(C)CC3)C/C(=C\c3ccc(OC)c(OC)c3)C2=O)cc1OC (stereo not drawn) [RUN-90] | 87% of ctrl. | 2.8 | 
16 | COc1ccc(/C=C2\CC(NC(=O)CCCN(C)C)C/C(=C\c3ccc(OC)c(OC)c3)C2=O)cc1OC (stereo not drawn) [RUN-91] | 95% of ctrl. | 1.6 | 
17 | COc1ccc(/C=C2\CC(NC(=O)CN)C/C(=C\c3ccc(OC)c(OC)c3)C2=O)cc1OC.O=C(O)C(F)(F)F (stereo not drawn) [RUN-92] | 90% of ctrl. | 1.6 | 

Source: paper PMC12606464, “Investigating NFE2L1 activators for targeted protein aggregate clearance: a follow-up study” (RSC Medicinal Chemistry, 2025)
